Tests used:
Format in all cases: cell-based
[1] = tested on: Primary human subcutaneous adipocytes; assay: Glucose uptake in human subcutaneous adipocytes, insulin resistant model
Description: As described above, primary human subcutaneous adipocytes were differentiated for two weeks prior to treatment. To induce an insulin resistant state, cells were treated in serum free Dulbecco's Modified Eagle Medium (high glucose) and […] for 24 hours. Cells were simultaneously treated with compounds diluted in DMSO for 24 hours. As described above, after 24 hours, media was exchanged for assay buffer and the compounds were added again but in the presence of approximately 1 nM insulin. Cells were washed and lysed after 2 hours and glucose uptake was measured. […] Statistical changes in glucose uptake were determined by way ANOVA and compared to DMSO.

Caco-2 colonocytes = assay: Human Caco-2 barrier integrity assay (TEER); details: 48 hours
Description: Caco-2 colonocytes were maintained at 37° C. and 5% CO2 in Dulbecco's Modified Eagle Medium (DMEM) and supplemented with 10% FBS, 1% NEAA, 1% penicillin-streptomycin. At 70-80% confluency, cells were trypsinized and seeded in 0.4 cm^2 transwell collagen I coated membranes with supplemented DMEM in both apical and basolateral compartments. Cells were seeded at a density of 200,000 cells per well and maintained for 10 days to form a polarized barrier with a TransEpithelial Electrial Resistance (TEER) reading above 1000Ω. On the first day of the assay, initial TEER readings were taken and cytokines were added to the basolateral media (50 ng/mL TNFα, 25 ng/mL IFNγ and 10 ng/mL IL-1β) to reduce barrier integrity while compounds diluted in (dimethylsulfoxide) DMSO were added to the apical media in triplicate. After 48 hours, TEER readings were taken again and viability was measured by CellTiter 96® AQueous One Solution Cell Proliferation Assay (Promega). The percent change in TEER over the 48 hours was determined and normalized to the 0.1% DMSO control (Table 6).

[2] = tested on: Primary human subcutaneous adipocytes; assay: Glucose uptake in human subcutaneous adipocytes, insulin sensitive model
Description: Primary human subcutaneous adipocytes (Zen Bio, Research Triangle Park, N.C.) were differentiated for two weeks prior to treatment. Cells were treated with indicated compounds diluted in (dimethyl-sulfoxide) DMSO in serum free medium for 24 hours in triplicate. After 24 hours, media was exchanged for assay buffer and the compounds were added again but in the presence of approximately 1 nM insulin. Glucose uptake was initiated with the addition of a cocktail containing 2-deoxyglucose and ^3H-2-deoxyglucose and allowed to incubate for 2 hours. Cells were washed, lysed and glucose uptake was measured as counts per well. As an assay control, 100 nM of insulin was used during the 2 hours of glucose uptake. […] Statistical changes in glucose uptake were determined by way ANOVA and compared to DMSO.

[3] = tested on: Human Peripheral Blood Monocytes (PBMCs); assay: Cytokine release from human PBMCs; details: 100 μM, LPS, 24 hours
Description: Human donor blood (8 mL) was collected in sodium citrate CPT tubes and centrifuged at 1,600×g for 20 minutes at room temperature. […] PBMCs samples were centrifuged at 400×g for 10 minutes at 10° C. […] PBMCs were filtered through a 70 micron mesh to remove any cellular debris. […] PBMCs in a 96-well plate were rested for 30 minutes in a 37° C., 5% CO2 incubator, then subsequently treated with 10 μl of indicated compound. After 2 hours 10 μL of LPS (O111:B4) 1 mg/mL was added to test wells. After 24 hours of incubation at 37° C., 5% CO2, 100 μL of cell supernatant was collected and transferred to a 96-well plate (non-tissue treated, flat bottom). The plate was centrifuged at 350×g for 5 minutes at room temperature, and then the clear supernatant transferred to a new 96-well plate (non-tissue treated, flat bottom). The remaining cells were tested for viability using CellTiter-Glo® Luminescent Cell Viability Assay (Promega). The supernatant was analyzed for TNFα, IL-6 and IL-1β (kit LXSAHM-03; R&D Systems), using Luminex Immunoassay Technology (MAGPIX System). Cytokine levels of LPS treated DMSO control samples were set to 100%, and compound treated samples were expressed relative to this (Table 13).

naïve CD4+ T cells = assay: Human regulatory T cell differentiation assay; details: 6 days
Description: Peripheral blood mononuclear cells (PBMCs) from whole blood donated by health volunteers were separated by Ficoll-Paque gradient centrifugation and naïve CD4^+ T cells were subsequently isolated using magnet beads (EasySep™ Human Naïve CD4^+ T Cell Isolation Kit, Cambridge, Mass.). For regulatory T cell (Treg) differentiation assay, naïve CD4^+ T cells were cultured (1-10×10^4 cells) in CTS OpTmizer medium for 6 days and stimulated with 5 ng/ml TGF-β, 100 U/ml IL-2, and ImmunoCult™ Human […] T Cell Activator; Stemcell #10990) with/without our Compounds. Cell viability was determined using a viability dye (eBioscience Fixable Viability Dye eFluor 780: ThermoFisher 65-0865-14) at 1:500 dilution. The cells were gated for Treg, defined as Live, CD11c^−, CD14^−, CD19^−, CD8^−, CD4^+, CD3^+, CD25^+, FOXP3^+. Percent (%) Tregs were calculated as percentage of CD4^+, CD25^+, FOXP3^+ cells over total CD4^+ T cells. Statistical analysis was performed with GraphPad Prism Software Using One-Way ANOVA.

Mouse myocyte = Mouse myocyte lipolysis assay; details: Mus musculus; 0.5 mM; read-out: Free glycerol % DMSO
Description: Cells were obtained from ATCC and cultured in Dulbecco's Modified Eagle's medium (DMEM) containing 20% fetal bovine serum and 1% penicillin/streptomycin at 37° C. in an incubator with 5% CO2. Once the cells became confluent, they were seeded into a tissue culture treated 96 well plate. The next day, the medium containing DMEM with 2% equine serum was used to start differentiation. Once cells were fully differentiated, they were treated with indicated compounds.

Mouse 3T3-L1 cells = assay: Mouse adipocyte lipolysis assay; details: Mus musculus, 3T3-L1, 24 hours, read-out: Lipolysis Free Fatty Acids % DMSO
Description: Once the cells became confluent, they were seeded into a tissue culture treated 96 well plate. […] After 14 days of differentiation, cells were treated with compounds of interest. After 24 hours post-treatment, the cell viability was assessed using CellTiter-Glo Luminescent Cell Viability Assay from Promega, and lipolysis was determined using Lipolysis Assay Kit from ZenBio.

With `CCC(=O)O` [Propionate, propionate] the “Insulin Resistant % DMSO (glucose uptake)” value (from here on “Insulin Resistant % DMSO”) ([1]; 3 mM) was “= (50%> ≤110%: =)”, the “% Change in TEER from DMSO” value (Caco-2 colonocytes; 1 mM + cytokines) was “+ (125%> ≤150%: +)” and the “% Change in TEER from DMSO” value (Caco-2 colonocytes; 3 mM + cytokines) was “++ (150%≥ ≤200%: ++)”. The “Insulin Sensitive % DMSO (glucose uptake)” value (“Insulin Sensitive % DMSO” for short) ([2]; 3 mM) was “= (50%> ≤110%: =)”, the “IL6 % DMSO control” value [3] was “+ ((+) 50%≥ <90% DMSO)” and the “ILβ % DMSO control” value [3] was “+ ((+) 50%≥ <90% DMSO)”. The “TNFα % of DMSO control” value [3] was “+ ((+) 50%≥ <90% DMSO)”.
For `CCCC(=O)O` [Butyrate, butyrate], the “Insulin Resistant % DMSO” value ([1]; 3 mM) was “+ (110%> ≤140%: +)”, the “% Change in TEER from DMSO” value (Caco-2 colonocytes; 1 mM + cytokines) was “− (≤125%: −)” and the “% Change in TEER from DMSO” value (Caco-2 colonocytes; 3 mM + cytokines) was “− (≤125%: −)”. For the same compound, the “% Change in TEER from DMSO” value (Caco-2 colonocytes; 5 mM + cytokines) was “++ (150%≥ ≤200%: ++)”, the “Insulin Sensitive % DMSO” value ([2]; 3 mM) was “− (<50%: −)” and the “IL6 % DMSO control” value [3] was “+ ((+) 50%≥ <90% DMSO)”. For the same compound, the “ILβ % DMSO control” value [3] was “− ((−) ≥110% DMSO;)” and the “TNFα % of DMSO control” value [3] was “++ ((++) <50% DMSO)”.
For `O=C[C@@H](O)[C@H](O)[C@H](O)CO` [arabinose], the “Insulin Resistant % DMSO” value ([1]; 0.5 mM) was “= (50%> ≤110%: =)”, the “Insulin Resistant % DMSO” value ([1]; 1 mM) was “= (50%> ≤110%: =)” and the “Insulin Sensitive % DMSO” value ([2]; 0.5 mM) was “= (50%> ≤110%: =)”. For the same compound, the “Insulin Sensitive % DMSO” value ([2]; 1 mM) was “++ (140%≥ ≤200%: ++)”, the “IL6 % DMSO control” value [3] was “+ ((+) 50%≥ <90% DMSO)” and the “ILβ % DMSO control” value [3] was “= ((=) 90%≥ <110% DMSO)”. The “TNFα % of DMSO control” value [3] was “+ ((+) 50%≥ <90% DMSO)”.
In the case of `CC(O)CC(=O)O` (stereo not drawn) [BHB, β-hydroxybutyrate], the “% Change in TEER from DMSO” value (Caco-2 colonocytes; 200 μM + cytokines) is reported as “+ (125%> ≤150%: +)”, the “% Change in TEER from DMSO” value (Caco-2 colonocytes; 2 mM + cytokines) is reported as “− (≤125%: −)” and the “IL6 % DMSO control” value [3] is reported as “= ((=) 90%≥ <110% DMSO)”. For the same compound, the “ILβ % DMSO control” value [3] was “− ((−) ≥110% DMSO;)” and the “TNFα % of DMSO control” value [3] was “− ((−) ≥110% DMSO;)”.
`C[C@@H](O)CCO` [(R)-1,3-Butanediol, (3R)-butane-1,3-diol] was tested, and the “Insulin Resistant % DMSO” value ([1]; 100 μM) was “= (50%> ≤110%: =)”, the “Insulin Resistant % DMSO” value ([1]; 500 μM) was “= (50%> ≤110%: =)” and the “Insulin Sensitive % DMSO” value ([2]; 100 μM) was “= (50%> ≤110%: =)”. For the same compound, the “Insulin Sensitive % DMSO” value ([2]; 500 μM) was “++ (140%≥ ≤200%: ++)”, the insulin-mediated glucose uptake ([2]; insulin sensitive model, compared to DMSO) was “significantly enhanced insulin-mediated glucose uptake” and the “Cell viability % DMSO” value (naïve CD4+ T cells; 100 uM) was “= (90%≥ ≤110%: =)”. For the same compound, the “Cell viability % DMSO” value (naïve CD4+ T cells; 0.5 mM) was “= (90%≥ ≤110%: =)”, the activity at 500 µM (naïve CD4+ T cells; Homo sapiens, CD4+ T, 144 h, 0.5 mM, read-out: Treg induction % DMSO) was 90 to 110% and the activity at 500 µM (Mouse myocyte) was 70 to 90%. For the same compound, the activity at 100 µM (Mouse 3T3-L1 cells; 100 μM) was 50 to 70% and the activity at 500 µM (Mouse 3T3-L1 cells; 0.5 mM) was 50 to 70%.

Source: patent US10953027B2, “Active agents and methods of their use for the treatment of metabolic disorders and nonalcoholic fatty liver disease” (Flagship Pioneering Innovations V, Inc., priority 2018, dated 2021)
